Measured values reported in the NIST ThermoML archive (doi:10.1016/j.tca.2008.10.017).
± gives the expanded uncertainty stated by the source.

What was measured:
[1] = Molar enthalpy of transition or fusion; details: DSC
[2] = for molar entropy: 101.33 kPa, Small (less than 1 g) adiabatic calorimetry; for Triple point temperature: DTA

CCCC[N+](CCCC)(CCCC)CCCC.[I-] [tetrabutylammonium iodide]
Details	Molar enthalpy of transition or fusion, [1] [kcal/mol]	Triple point temperature, [2] [K]
Crystal 1	2.15 ± 0.0717	423.2 ± 0.8
Crystal 2	6.64 ± 0.143	398.7 ± 1

[2], Crystal 2
Details	molar entropy [J/K/mol]
5 K	0.292 ± 0.03
10 K	2.32 ± 0.07
20 K	14.45 ± 0.23
30 K	33.35 ± 0.31
40 K	55.15 ± 0.44
50 K	77.88 ± 0.57
60 K	100.5 ± 0.7
70 K	123 ± 0.8
80 K	145 ± 1
90 K	166.3 ± 1
100 K	187 ± 1.2
110 K	207.1 ± 1.3
120 K	226.7 ± 1.4
130 K	245.6 ± 1.5
140 K	264 ± 1.6
150 K	282 ± 1.6
160 K	299.4 ± 1.7
170 K	316.5 ± 1.8
180 K	333.2 ± 1.9
190 K	349.6 ± 2
200 K	365.7 ± 2.1
210 K	381.6 ± 2.2
220 K	397.2 ± 2.2
230 K	412.6 ± 2.3
240 K	427.9 ± 2.4
250 K	443.1 ± 2.5
260 K	458.1 ± 2.6
270 K	473.1 ± 2.6
273.15 K	477.8 ± 2.7
280 K	488 ± 2.7
290 K	502.9 ± 2.8
298.15 K	515 ± 2.9
300 K	517.7 ± 2.9
310 K	532.6 ± 2.9
320 K	547.4 ± 3
330 K	562.3 ± 3.1
340 K	577.3 ± 3.2
350 K	592.4 ± 3.3
